Columns and labels:
HeLa cells [1] = assay: [3H]-triptolide competition binding in intact HeLa cells; settings: for displacement of / competition for [3H]-triptolide binding: 1 or 10 μM unlabeled competitor for 1 h before approx. 30 nM [3H]-triptolide for 1 h
Experimental: To gain insight into triptolide's mechanism of action Applicant sought to determine its specific binding activity utilizing a system employing [^3H]-triptolide. In addition to competition with 1 μM or 10 μM unlabeled triptolide, Applicant also measured the binding affinities of triptolide analogs (FIG. 3A). These analogs have been previously described and differ structurally from triptolide in the hydrolysis of the 12,13 epoxide (2), and formation of the ketone at the C-14 hydroxyl (3) (FIG. 3A). […] The effective interaction of these analogs with a presumed triptolide binding entity led us to their use in subsequent experiments addressing the mode of triptolide's biological functions.
Labeling studies were performed by the addition of approximately 30 nM [^3H]-triptolide directly into the culture media for one hour at 37° C. For cold competition studies, 1 μM triptolide was incubated with the cells for one hour before or after the addition of [^3H]-triptolide. Triptolide analog studies followed a similar protocol where concentrations used for competition were either 1 or 10 μM added before [^3H]-triptolide. Medium was removed and cells were washed 3× in cold PBS. Total cell lysates were prepared (150 mM NaCl, 50 mM Tris-HCl pH 7.4, 1 mM EDTA, 1% Triton X-100, and Complete™ protease inhibitors (Roche)) and protein was quantitated before measuring the [^3H]-triptolide binding activity via liquid scintillation.

HeLa cells [2] = assay: HeLa cell viability by trypan blue dye exclusion; type: cell-based
Experimental: Since extracellular calcium concentration can influence triptolide binding Applicant sought to determine if the presence of calcium influences the rate of triptolide-mediated apoptosis. To first establish the growth rate of HeLa in media±calcium, cell counts were performed over a 72 hour time course. Although calcium-free media caused cells to detach more easily, the overall growth rates were similar where cell doubling occurred every 24 hours on average (FIG. 5B). For triptolide experiments, cells were initially equilibrated in medium±calcium for 16 hours before the addition of 100 nM triptolide. Cell death was assessed by trypan blue dye exclusion at 24, 48, and 72 hours post drug treatment. In the presence of calcium-containing medium, triptolide induced at least 50% cell death by 24 hours with this trend continuing through later time points (FIG. 5C).
Applicant's results have implicated reversible binding of triptolide to a potential binding protein or complex that can be regulated by calcium. To understand if triptolide function is further separable between cell death and NFκB inhibition, Applicant examined the effect of concentration on these two endpoints. HeLa cells were cultured in the presence of 0, 10, 25, 50, or 100 nM of triptolide and separately assessed for cell death or the ability to suppress NFκB transactivation promoted by TNF-α. Following 24-48 hours of culture, viable cells were recovered and counted. Following 24 hours, triptolide concentrations from 25-100 nM caused greater than 50% of the cells to undergo cell death as assessed by detachment, clumping and the failure to exclude trypan blue dye. […] This is consistent with previous studies showing that low doses of triptolide cause cell cycle arrest rather than apoptosis (Kiviharju, et al., 2002, Clin Cancer Res 8, 2666-2674).
Based upon Applicant's studies examining the concentration dependent effect of triptolide on the two measured biological endpoints, cell death and transcriptional repression, Applicant wanted to determine how modulating triptolide's structure may also discriminate between the two pathways. For cell viability assays, HeLa cells were incubated with 0, 0.1, 1, or 10 μM of each analog or triptolide for 24 hours and then counted using trypan blue dye exclusion. […] NFκB transcriptional inhibition was measured using the κB-luciferase assay as previously described following 5 hours of incubation with each analog (0-10 μM) and TNF-α addition.
HeLa cells were incubated in DMEM or SMEM (Gibco) media+10% FBS and maintained at 37° C. in 5% CO2 for all experiments. HeLa cell viability was assessed by trypan blue dye exclusion, as well as by morphological examination (non-viable cells were rounded and detached from culture plate).

NFκB transactivation = assay: κB-luciferase reporter assay of TNF-α induced NFκB transactivation in HeLa cells; type: cell-based
Experimental: Having established that triptolide induced cell death is dependent upon free calcium concentration, Applicant next determined whether this was also a requirement for the inhibition of NFκB transcription. HeLa cells were transiently transfected with the κB-luciferase reporter construct for 8 hours before being washed and then cultured in the presence or absence of calcium containing medium for 16 hours. Triptolide (100 nM) was pre-incubated with cells for 1 hour before addition of 15 ng/ml of TNF-α for 4 hours.
As an additional experiment, transcriptional activity was also assessed by site-directed calcium buffering. HeLa cells were co-transfected with the κB-luciferase plasmid as well as one of the following constructs: GFP empty vector, NES-PV-GFP, or NLS-PV-GFP and proper GFP localization was confirmed. […]
NFκB transactivation was examined using the κB-luciferase reporter construct. […] Cells were assessed for NFκB driven luciferase expression after an additional five hours of incubation, at which time TNF-α had induced transcriptional activity by approximately 15-fold in control cells. […] The results thus far support a divergence of triptolide-mediated functions: the pathway regulating growth arrest/death is more sensitive to triptolide and calcium than the mechanism leading to transcriptional repression of NFκB.
A triple κB promoter-Luciferase reporter construct was a gift of Sankar Ghosh (Yale University). […] The transfection efficiency of HeLa was determined to be 80-90%, and all samples were normalized to protein concentration. Luciferase assays were performed using the Firefly luciferase kit as per manufacturer's protocol (Promega) and results obtained on the Wallac Victor2 1420 Multilabel Counter (Perkin Elmer).

Row | Compound | displacement of / competition for [3H]-triptolide binding (HeLa cells [1]) | cell viability versus untreated control (HeLa cells [2]; 0.1 μM, 24 hours) | effect on continued cell growth (HeLa cells [2]; 0.1 μM, out to 72 hours) | cell death (HeLa cells [2]; 1 μM, 24 hours) | effect on NFκB transcriptional activity (NFκB transactivation; 1 μM, 5 hours with TNF-α) | competitive ability for [3H]-triptolide binding compared with triptolide (HeLa cells [1]; 1 μM competitor) | effect on cells at low concentration (HeLa cells [2]; 25 nM) | profile of cell death compared with triptolide (HeLa cells [2]; 0.1-10 μM, 24 hours) | profile of transcriptional repression (NFκB) compared with triptolide (NFκB transactivation; 0.1-10 μM, 5 hours)
1 | CC(C)C1(O)C(O)C2OC23C2(C)CCC4=C(COC4=O)C2CC2OC23C1O (stereo not shown) [analog (2), Triol-Triptolide] | efficiently competes | not different from the untreated control | overall growth suppressive effect | greater than 50% | no effect |  |  |  | 
2 | CC(C)[C@]12O[C@H]1[C@@H]1O[C@@]13[C@@]1(C)CCC4=C(COC4=O)[C@@H]1C[C@@H]1O[C@@]13C2=O [analog (3), Triptonide] | near complete |  |  |  |  | higher competitive ability than triptolide itself | only a growth suppressive effect | mimicked triptolide with no significant difference | mimicked triptolide with no significant difference

— patent publication US20080063601A1, “Compositions and methods relating to polycystic kidney disease” (priority 2004, published 2008)
